Measurements from PubChem BioAssay AID250 (DTP/NCI, 2004).
Several values for one entry are separate records, joined by “and”; a condition that tells them apart may be missing. Equal values may be shown once. Inconclusive results and toxic doses are left out. How the source made its calls: active means survival T/C of 150% or more; inactive means T/C below 125% in these data.

Tested on: BDF1 mice, L1210 leukemia sc, survival T/C
Test: NCI In Vivo Anticancer Drug Screen. Data for tumor model L1210 Leukemia (subcutaneous) in B6D2F1 (BDF1) mice
Conditions: endpoint: median survival time, higher = longer survival
Method in brief: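 Tumors were transplanted into mice, the animals were treated with compound, survival or tumor size was then measured, and treated values were divided by vehicle-control values.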

[1] = dose: 5.0 mg/kg/injection, schedule: Q01DX Z (sc), vehicle: saline
[2] = dose: 8.4 mg/kg/injection, schedule: Q01DX Z (sc), vehicle: saline
[3] = dose: 14.0 mg/kg/injection, schedule: Q01DX Z (sc), vehicle: saline
[4] = dose: 23.0 mg/kg/injection, schedule: Q01DX Z (sc), vehicle: saline
[5] = dose: 39.0 mg/kg/injection, schedule: Q01DX Z (sc), vehicle: saline
[6] = dose: 39.0 mg/kg/injection, schedule: Q01DX Z (sc), vehicle: water
[7] = dose: 65.0 mg/kg/injection, schedule: Q01DX Z (sc), vehicle: saline
[8] = dose: 108.0 mg/kg/injection, schedule: Q01DX Z (sc), vehicle: saline
[9] = dose: 180.0 mg/kg/injection, schedule: Q01DX Z (sc), vehicle: saline
[10] = dose: 300.0 mg/kg/injection, schedule: Q01DX Z (sc), vehicle: saline
[11] = dose: 300.0 mg/kg/injection, schedule: Q01DX Z (sc), vehicle: water
[12] = dose: 300.0 mg/kg/injection, schedule: Q01DX Z (sc), vehicle: methylcellulose (MC)
[13] = dose: 23.0 mg/kg/injection, schedule: Q01DX Z (sc), vehicle: water

Measured: T/C

COc1cccc2c1C(=O)c1c(O)c3c(c(O)c1C2=O)C[C@@](O)(C(=O)CO)C[C@@H]3OC1CC(N)C(O)C(C)O1 (stereo not given in full)
inactive: dose: 0.39 mg/kg/injection, schedule: Q03HX008 (ip), vehicle: water 88 % of control | dose: 0.39 mg/kg/injection, schedule: Q03HX008 (sc), vehicle: water 100 % of control | dose: 0.65 mg/kg/injection, schedule: Q01DX005 (ip), vehicle: water 95 % of control | dose: 0.65 mg/kg/injection, schedule: Q01DX005 (sc), vehicle: water 95 % of control | dose: 0.65 mg/kg/injection, schedule: Q03HX008 (ip), vehicle: water 100 % of control (2×) and 111 % of control | dose: 1.0 mg/kg/injection, schedule: Q04DX003 (ip), vehicle: saline 92 % of control | dose: 1.08 mg/kg/injection, schedule: Q01DX005 (ip), vehicle: water 95 % of control | dose: 1.08 mg/kg/injection, schedule: Q01DX005 (sc), vehicle: water 100 % of control | dose: 1.08 mg/kg/injection, schedule: Q03HX008 (ip), vehicle: water 100 % of control and 105 % of control and 111 % of control | dose: 1.8 mg/kg/injection, schedule: Q01DX005 (ip), vehicle: water 100 % of control | dose: 1.8 mg/kg/injection, schedule: Q01DX005 (sc), vehicle: water 110 % of control | dose: 1.8 mg/kg/injection, schedule: Q03HX008 (ip), vehicle: water 111 % of control | dose: 1.8 mg/kg/injection, schedule: Q04DX003 (sc), vehicle: water 111 % of control | dose: 2.0 mg/kg/injection, schedule: Q04DX003 (ip), vehicle: saline 94 % of control | dose: 3.0 mg/kg/injection, schedule: Q01DX001 (sc), vehicle: water 111 % of control | dose: 3.0 mg/kg/injection, schedule: Q01DX005 (sc), vehicle: water 110 % of control | dose: 3.0 mg/kg/injection, schedule: Q04DX003 (sc), vehicle: water 116 % of control | dose: 4.0 mg/kg/injection, schedule: Q04DX003 (ip), vehicle: saline 92 % of control | dose: 5.0 mg/kg/injection, schedule: Q01DX001 (iv), vehicle: water 111 % of control and 115 % of control | dose: 5.0 mg/kg/injection, schedule: Q01DX001 (sc), vehicle: water 111 % of control | dose: 5.0 mg/kg/injection, schedule: Q04DX003 (sc), vehicle: water 122 % of control | dose: 8.0 mg/kg/injection, schedule: Q04DX003 (ip), vehicle: saline 91 % of control | dose: 8.4 mg/kg/injection, schedule: Q01DX001 (iv), vehicle: water 122 % of control | dose: 14.0 mg/kg/injection, schedule: Q01DX001 (sc), vehicle: water 111 % of control | dose: 14.0 mg/kg/injection, schedule: Q04DX003 (sc), vehicle: water 94 % of control | dose: 23.0 mg/kg/injection, schedule: Q01DX001 (iv), vehicle: water 67 % of control

O=C(Nc1ccc(C2=NCCN2)cc1)c1ccc(C(=O)Nc2ccc(C3=NCCN3)cc2)cc1
205 % of control and 105 % of control: dose: 400.0 mg/kg/injection, schedule: Q01DX Z (sc), vehicle: water
active: dose: 300.0 mg/kg/injection, schedule: Q01DX Z (ip), vehicle: water 185 % of control | dose: 800.0 mg/kg/injection, schedule: Q01DX Z (sc), vehicle: water 170 % of control and 220 % of control
inactive: dose: 3.0 mg/kg/injection, schedule: Q01DX Z (sc), vehicle: saline 100 % of control | [1] 100 % of control and 104 % of control | [2] 109 % of control | [3] 104 % of control | dose: 23.0 mg/kg/injection, schedule: Q01DX Z (ip), vehicle: water 100 % of control | [4] 104 % of control and 109 % of control | dose: 39.0 mg/kg/injection, schedule: Q01DX Z (ip), vehicle: water 100 % of control | [5] 100 % of control | [6] 100 % of control | dose: 65.0 mg/kg/injection, schedule: Q01DX Z (ip), vehicle: water 110 % of control | [7] 100 % of control and 104 % of control | [8] 100 % of control and 104 % of control | dose: 180.0 mg/kg/injection, schedule: Q01DX Z (ip), vehicle: water 115 % of control | [9] 104 % of control | dose: 200.0 mg/kg/injection, schedule: Q01DX Z (sc), vehicle: water 110 % of control and 100 % of control | [10] 104 % of control | [11] 100 % of control

O=P(N1CCOCC1)(N1CC1)N1CC1
inactive: [1] 96 % of control and 110 % of control | [2] 100 % of control and 110 % of control | [7] 112 % of control
active: [4] 160 % of control and 164 % of control

CC1(C)N=C(N)N=C(N)N1c1cccc(Br)c1
inactive: [4] 105 % of control | dose: 39.0 mg/kg/injection, schedule: Q01DX Z (sc), vehicle: methylcellulose (MC) 112 % of control | [5] 100 % of control and 122 % of control | dose: 65.0 mg/kg/injection, schedule: Q01DX Z (sc), vehicle: methylcellulose (MC) 118 % of control | [7] 110 % of control and 122 % of control | [8] 122 % of control

Cc1cc2nc3c(=O)[nH]c(=O)nc-3n(CC(O)C(O)C(O)C(O)CO)c2cc1C (stereo not given)
inactive: dose: 180.0 mg/kg/injection, schedule: Q01DX Z (sc), vehicle: methylcellulose (MC) 100 % of control | [12] 100 % of control | dose: 500.0 mg/kg/injection, schedule: Q01DX Z (sc), vehicle: methylcellulose (MC) 100 % of control

CCCOC1=C(N2CC2)C(=O)C(OCCC)=C(N2CC2)C1=O
inactive: [2] 110 % of control | [3] 110 % of control | [8] 115 % of control

CC/C(=C(/CC)c1ccc(O)cc1)c1ccc(O)cc1
inactive: dose: 108.0 mg/kg/injection, schedule: Q01DX Z (sc), vehicle: methylcellulose (MC) 100 % of control | [12] 100 % of control

O=NN(CCF)C(=O)NC12CC3CC(CC(C3)C1)C2
active: dose: 65.0 mg/kg/injection, schedule: Q01DX Z (sc), vehicle: carboxymethylcellulose (CMC) 388 % of control | dose: 108.0 mg/kg/injection, schedule: Q01DX Z (sc), vehicle: carboxymethylcellulose (CMC) 200 % of control
inactive: dose: 14.0 mg/kg/injection, schedule: Q01DX Z (sc), vehicle: carboxymethylcellulose (CMC) 100 % of control | dose: 23.0 mg/kg/injection, schedule: Q01DX Z (sc), vehicle: carboxymethylcellulose (CMC) 100 % of control

O=c1[nH]cc(Br)c(=O)[nH]1
inactive: dose: 38.9 mg/kg/injection, schedule: Q01DX Z (sc), vehicle: saline 91 % of control | dose: 64.8 mg/kg/injection, schedule: Q01DX Z (sc), vehicle: saline 95 % of control | [8] 100 % of control | [9] 100 % of control | [10] 100 % of control | dose: 500.0 mg/kg/injection, schedule: Q01DX Z (sc), vehicle: saline 100 % of control

O=C(NP(=O)(N1CC1)N1CC1)OCc1ccccc1
inactive: dose: 3.0 mg/kg/injection, schedule: Q01DX Z (sc), vehicle: water 111 % of control | dose: 14.0 mg/kg/injection, schedule: Q01DX Z (sc), vehicle: water 111 % of control | [13] 111 % of control

COC(=O)Nc1nc2ccc(C(=O)c3cccs3)cc2[nH]1
inactive: dose: 50.0 mg/kg/injection, schedule: Q04DX003 (ip), vehicle: other 118 % of control
active: dose: 70.0 mg/kg/injection, schedule: Q04DX003 (iv), vehicle: other 161 % of control | dose: 100.0 mg/kg/injection, schedule: Q04DX003 (iv), vehicle: other 151 % of control

COc1cccc(/C=N/NC(N)=S)c1
inactive: dose: 78.0 mg/kg/injection, schedule: Q01DX Z (sc), vehicle: water 100 % of control | dose: 130.0 mg/kg/injection, schedule: Q01DX Z (sc), vehicle: water 105 % of control | dose: 216.0 mg/kg/injection, schedule: Q01DX Z (sc), vehicle: water 100 % of control

CCOC(C)C(=O)C=O (stereo not given)
inactive: [13] 100 % of control | [6] 100 % of control | dose: 65.0 mg/kg/injection, schedule: Q01DX Z (sc), vehicle: water 100 % of control | dose: 108.0 mg/kg/injection, schedule: Q01DX Z (sc), vehicle: water 100 % of control | dose: 180.0 mg/kg/injection, schedule: Q01DX Z (sc), vehicle: water 100 % of control | [11] 100 % of control | dose: 500.0 mg/kg/injection, schedule: Q01DX Z (sc), vehicle: water 105 % of control
